# Experimental data reported in US9958436B2, “Determination of cell chirality” (THE TRUSTEES OF COLUMBIA UNIVERSITY IN THE CITY OF NEW YORK, priority 2011, dated 2018).
# How the values were obtained:
# C2C12 cells = test: Cell chirality (alignment) on micropatterned rings, drug treatment, C2C12; assay type: cell-based, mouse; settings: for effect on left-right asymmetry / effect on cell chirality: C2C12; for effect on left-right asymmetry: drugs that affect the actomyosin motor, 0.2-10 mM Y-27632, 1-20 mM ML-7, 0.5-10 mM Blebbistatin; for CCW: counter-clockwise alignment / CW: clockwise alignment / N/S: not significantly biased to CW or CCW: C2C12 on ring patterns, count of rings; for effect on chirality of C2C12 cells: low concentrations of the actin treadmilling inhibitors; for effect on cell chirality: inhibitors of tubulin dynamics at concentrations below those resulting in cell apoptosis
# Description: (§1) Cells were maintained in tissue flasks with culture media specified in TABLE 2. After reaching 70% confluency, cells were trypsinized and seeded onto protein-coated patterned surfaces. Once the cells attached, extra cells were washed off with fresh medium. At this time drugs were added into the culture medium if necessary. Phase contrast images were taken after overnight incubation at 37° C. and 5% CO2 when cells reached confluency on the ring patterns.
# (§2) To examine the role of actin in left-right (LR) asymmetry, cells were tested with 20-500 nM Latrunculin A, 0.05-1.0 μg/ml Cytochalasin D, and 1-100 nM Jasplakinolide. Latrunculin A inhibits actin polymerization by forming a 1:1 molar complex with G-actin, thereby inhibiting its ability to polymerize into F-actin (M. Coue, S. L. Brenner, I. Spector, E. D. Korn, FEBS Lett 213, 316 (Mar. 23, 1987)). Cytochalasin D inhibits actin polymerization by binding to the growing ends of F-actin chains and thus preventing the attachment and addition of G-actin monomers (J. A. Cooper, J Cell Biol 105, 1473 (October, 1987)). Jasplakinolide is known to bind to and stabilize actin filaments in vitro (M. R. Bubb, I. Spector, B. B. Beyer, K. M. Fosen, J Biol Chem 275, 5163 (Feb. 18, 2000)).
# (§3) To examine the role of microtubules in LR asymmetry, 0.2-2 μM Nocodazole, and 0.3-30 nM Taxol were used. Nocodazole suppresses microtubule dynamics by destabilizing and disassembling microtubules (J. A. Cooper, J Cell Biol 105, 1473 (October, 1987)). Taxol inhibits the microtubule depolymerization and stabilizes microtubules (W. B. Derry, L. Wilson, M. A. Jordan, Biochemistry 34, 2203 (Feb. 21, 1995)).
# To examine the role of the actomyosin motor, cells were tested with […], […], and 0.5-10 […]. Y-27632 works as a selective inhibitor to prevent the phosphorylation of the myosin regulatory light chain (T. Ishizaki et al., Mol Pharmacol 57, 976 (May, 2000)). ML-7 acts as a selective inhibitor of the myosin light chain kinase (M. Isemura, T. Mita, K. Satoh, K. Narumi, M. Motomiya, Cell Biol Int Rep 15, 965 (October, 1991)). Blebbistatin forms a low actin affinity complex through binding to myosin heads, causing the inhibition of nonmuscle myosin II ATPase activity (M. Kovacs, J. Toth, C. Hetenyi, A. Malnasi-Csizmadia, J. R. Sellers, J Biol Chem 279, 35557 (Aug. 20, 2004)).
# (§4) High-resolution phase contrast images of live patterned cells were taken at a resolution of ˜0.645 μm/pixel, and analyzed using a custom-written code in MatLab (MathWorks, Natick, Mass.), based on the automated detection of intensity gradient and circular statistics (W. J. Karlon et al., Ann Biomed Eng 27, 712 (November-December, 1999)). In this algorithm, the intensity gradient was determined pixel by pixel with a Gaussian differential filter. In each sub-region of the image, the dominant local direction was determined using an accumulator scheme, in which the orientation of each pixel follows a von Mises distribution, a circular analogue of the linear normal distribution. Subsequently, the orientation in each sub-region was converted into an angle bias based on its deviation from the circumferential direction (see e.g., FIG. 2C). Mean angle and standard deviation of LR asymmetry were calculated for all sub-regions, using circular statistics (N. I. Fish, Statistical Analysis of Circular Data. (Cambridge University Press, Cambridge, UK, 1993)). […] The sub-region size was therefore set to 20 by 20 pixels (i.e., 13 by 13 μm).
# (§5) Cell chirality on ring patterns (i.e., clockwise or counterclockwise alignment) was determined from calculated biased angles in local regions with one sample test for the mean angle, analogous to the one sample t-test in linear statistics (N. I. Fish, Statistical Analysis of Circular Data. (Cambridge University Press, Cambridge, UK, 1993)).
# hUVEC cells = test: Cell chirality (alignment) on micropatterned rings, drug treatment, hUVEC; assay type: cell-based, human; settings: hUVEC on ring patterns, count of rings
# Description: as §1, §2, §3, §4, §5
smiles,measurement,setting,value
Cc1ccc2c(c1)C(=O)C1(O)CCN(c3ccccc3)C1=N2 (stereo not shown) [Blebbistatin],effect on left-right asymmetry,C2C12 cells,did not affect left-right asymmetry
C=C1[C@@H](C)[C@H]2[C@H](Cc3ccccc3)NC(=O)[C@]23[C@H](OC(C)=O)/C=C/[C@@](C)(O)C(=O)[C@@H](C)C/C=C/[C@H]3[C@@H]1O [Cytochalasin D],CCW: counter-clockwise alignment,C2C12 cells; drug 0.05 μg/mL,8
same,CW: clockwise alignment,C2C12 cells; drug 0.05 μg/mL,9
same,N/S: not significantly biased to CW or CCW,C2C12 cells; drug 0.05 μg/mL,6
same,CCW: counter-clockwise alignment,C2C12 cells; drug 0.1 μg/mL,3
same,CW: clockwise alignment,C2C12 cells; drug 0.1 μg/mL,7
same,N/S: not significantly biased to CW or CCW,C2C12 cells; drug 0.1 μg/mL,10
same,CCW: counter-clockwise alignment,C2C12 cells; drug 0.2 μg/mL,5
same,CW: clockwise alignment,C2C12 cells; drug 0.2 μg/mL,21
same,N/S: not significantly biased to CW or CCW,C2C12 cells; drug 0.2 μg/mL,23
same,CCW: counter-clockwise alignment,C2C12 cells; drug 0.5 μg/mL,0
same,CW: clockwise alignment,C2C12 cells; drug 0.5 μg/mL,10
same,N/S: not significantly biased to CW or CCW,C2C12 cells; drug 0.5 μg/mL,14
same,CCW: counter-clockwise alignment,C2C12 cells; drug 1 μg/mL,1
same,CW: clockwise alignment,C2C12 cells; drug 1 μg/mL,8
same,N/S: not significantly biased to CW or CCW,C2C12 cells; drug 1 μg/mL,20
same,effect on chirality of C2C12 cells,C2C12 cells,reversed the chirality of C2C12 cells from CCW into CW
same,CCW: counter-clockwise alignment,hUVEC cells; drug 0.1 μg/mL,0
same,CW: clockwise alignment,hUVEC cells; drug 0.1 μg/mL,8
same,N/S: not significantly biased to CW or CCW,hUVEC cells; drug 0.1 μg/mL,12
same,CCW: counter-clockwise alignment,hUVEC cells; drug 0.2 μg/mL,0
same,CW: clockwise alignment,hUVEC cells; drug 0.2 μg/mL,10
same,N/S: not significantly biased to CW or CCW,hUVEC cells; drug 0.2 μg/mL,22
same,CCW: counter-clockwise alignment,hUVEC cells; drug 0.5 μg/mL,1
same,CW: clockwise alignment,hUVEC cells; drug 0.5 μg/mL,0
same,N/S: not significantly biased to CW or CCW,hUVEC cells; drug 0.5 μg/mL,6
C/C1=C\[C@H](C)C[C@H](C)OC(=O)C[C@H](c2ccc(O)cc2)NC(=O)[C@@H](Cc2c(Br)[nH]c3ccccc23)N(C)C(=O)[C@H](C)NC(=O)[C@@H](C)C1 [Jasplakinolide],CCW: counter-clockwise alignment,C2C12 cells; drug 1 nM,34
same,CW: clockwise alignment,C2C12 cells; drug 1 nM,2
same,N/S: not significantly biased to CW or CCW,C2C12 cells; drug 1 nM,10
same,CCW: counter-clockwise alignment,C2C12 cells; drug 3 nM,18
same,CW: clockwise alignment,C2C12 cells; drug 3 nM,3
same,N/S: not significantly biased to CW or CCW,C2C12 cells; drug 3 nM,4
same,CCW: counter-clockwise alignment,C2C12 cells; drug 10 nM,14
same,CW: clockwise alignment,C2C12 cells; drug 10 nM,7
same,N/S: not significantly biased to CW or CCW,C2C12 cells; drug 10 nM,5
same,CCW: counter-clockwise alignment,C2C12 cells; drug 30 nM,0
same,CW: clockwise alignment,C2C12 cells; drug 30 nM,18
same,N/S: not significantly biased to CW or CCW,C2C12 cells; drug 30 nM,4
same,CCW: counter-clockwise alignment,C2C12 cells; drug 100 nM,0
same,CW: clockwise alignment,C2C12 cells; drug 100 nM,7
same,N/S: not significantly biased to CW or CCW,C2C12 cells; drug 100 nM,9
same,effect on chirality of C2C12 cells,C2C12 cells,reversed the chirality of C2C12 cells from CCW into CW
same,CCW: counter-clockwise alignment,hUVEC cells; drug 1 nM,1
same,CW: clockwise alignment,hUVEC cells; drug 1 nM,32
same,N/S: not significantly biased to CW or CCW,hUVEC cells; drug 1 nM,1
same,CCW: counter-clockwise alignment,hUVEC cells; drug 3 nM,2
same,CW: clockwise alignment,hUVEC cells; drug 3 nM,22
same,N/S: not significantly biased to CW or CCW,hUVEC cells; drug 3 nM,5
same,CCW: counter-clockwise alignment,hUVEC cells; drug 10 nM,5
same,CW: clockwise alignment,hUVEC cells; drug 10 nM,22
same,N/S: not significantly biased to CW or CCW,hUVEC cells; drug 10 nM,10
same,CCW: counter-clockwise alignment,hUVEC cells; drug 30 nM,0
same,CW: clockwise alignment,hUVEC cells; drug 30 nM,5
same,N/S: not significantly biased to CW or CCW,hUVEC cells; drug 30 nM,4
same,CCW: counter-clockwise alignment,hUVEC cells; drug 100 nM,0
same,CW: clockwise alignment,hUVEC cells; drug 100 nM,1
same,N/S: not significantly biased to CW or CCW,hUVEC cells; drug 100 nM,5
O=S(=O)(c1cccc2c(I)cccc12)N1CCCNCC1 [ML-7],effect on left-right asymmetry,C2C12 cells,did not affect left-right asymmetry
COC(=O)Nc1nc2ccc(C(=O)c3cccs3)cc2[nH]1 [Nocodazole],effect on cell chirality,C2C12 cells,did not change cell chirality
same,CCW: counter-clockwise alignment,C2C12 cells; drug 200 nM,57
same,CW: clockwise alignment,C2C12 cells; drug 200 nM,0
same,N/S: not significantly biased to CW or CCW,C2C12 cells; drug 200 nM,18
same,CCW: counter-clockwise alignment,C2C12 cells; drug 500 nM,35
same,CW: clockwise alignment,C2C12 cells; drug 500 nM,0
same,N/S: not significantly biased to CW or CCW,C2C12 cells; drug 500 nM,58
same,CCW: counter-clockwise alignment,C2C12 cells; drug 1 μM,18
same,CW: clockwise alignment,C2C12 cells; drug 1 μM,0
same,N/S: not significantly biased to CW or CCW,C2C12 cells; drug 1 μM,21
same,CCW: counter-clockwise alignment,C2C12 cells; drug 2 μM,1
same,CW: clockwise alignment,C2C12 cells; drug 2 μM,0
same,N/S: not significantly biased to CW or CCW,C2C12 cells; drug 2 μM,6
same,CCW: counter-clockwise alignment,hUVEC cells; drug 200 nM,3
same,CW: clockwise alignment,hUVEC cells; drug 200 nM,25
same,N/S: not significantly biased to CW or CCW,hUVEC cells; drug 200 nM,76
same,CCW: counter-clockwise alignment,hUVEC cells; drug 500 nM,2
same,CW: clockwise alignment,hUVEC cells; drug 500 nM,14
same,N/S: not significantly biased to CW or CCW,hUVEC cells; drug 500 nM,27
same,CCW: counter-clockwise alignment,hUVEC cells; drug 1 μm,0
same,CW: clockwise alignment,hUVEC cells; drug 1 μm,3
same,N/S: not significantly biased to CW or CCW,hUVEC cells; drug 1 μm,4
same,CCW: counter-clockwise alignment,hUVEC cells; drug 2 μm,0
same,CW: clockwise alignment,hUVEC cells; drug 2 μm,1
same,N/S: not significantly biased to CW or CCW,hUVEC cells; drug 2 μm,7
CC(=O)O[C@H]1C(=O)[C@@]2(C)[C@H]([C@H](OC(=O)c3ccccc3)[C@]3(O)C[C@H](OC(=O)[C@H](O)[C@@H](NC(=O)c4ccccc4)c4ccccc4)C(C)=C1C3(C)C)[C@]1(OC(C)=O)CO[C@@H]1C[C@@H]2O [Taxol],effect on cell chirality,C2C12 cells,did not change cell chirality
same,CCW: counter-clockwise alignment,C2C12 cells; drug 0.3 nM,24
same,CW: clockwise alignment,C2C12 cells; drug 0.3 nM,1
same,N/S: not significantly biased to CW or CCW,C2C12 cells; drug 0.3 nM,3
same,CCW: counter-clockwise alignment,C2C12 cells; drug 1 nM,20
same,CW: clockwise alignment,C2C12 cells; drug 1 nM,1
same,N/S: not significantly biased to CW or CCW,C2C12 cells; drug 1 nM,6
same,CCW: counter-clockwise alignment,C2C12 cells; drug 3 nM,31
same,CW: clockwise alignment,C2C12 cells; drug 3 nM,2
same,N/S: not significantly biased to CW or CCW,C2C12 cells; drug 3 nM,9
same,CCW: counter-clockwise alignment,C2C12 cells; drug 10 nM,17
same,CW: clockwise alignment,C2C12 cells; drug 10 nM,2
same,N/S: not significantly biased to CW or CCW,C2C12 cells; drug 10 nM,8
same,CCW: counter-clockwise alignment,C2C12 cells; drug 30 nM,16
same,CW: clockwise alignment,C2C12 cells; drug 30 nM,2
same,N/S: not significantly biased to CW or CCW,C2C12 cells; drug 30 nM,13
same,CCW: counter-clockwise alignment,hUVEC cells; drug 0.3 nM,0
same,CW: clockwise alignment,hUVEC cells; drug 0.3 nM,8
same,N/S: not significantly biased to CW or CCW,hUVEC cells; drug 0.3 nM,0
same,CCW: counter-clockwise alignment,hUVEC cells; drug 1 nM,1
same,CW: clockwise alignment,hUVEC cells; drug 1 nM,34
same,N/S: not significantly biased to CW or CCW,hUVEC cells; drug 1 nM,4
same,CCW: counter-clockwise alignment,hUVEC cells; drug 3 nM,2
same,CW: clockwise alignment,hUVEC cells; drug 3 nM,7
same,N/S: not significantly biased to CW or CCW,hUVEC cells; drug 3 nM,9
same,CCW: counter-clockwise alignment,hUVEC cells; drug 10 nM,5
same,CW: clockwise alignment,hUVEC cells; drug 10 nM,10
same,N/S: not significantly biased to CW or CCW,hUVEC cells; drug 10 nM,11
same,CCW: counter-clockwise alignment,hUVEC cells; drug 30 nM,2
same,CW: clockwise alignment,hUVEC cells; drug 30 nM,4
same,N/S: not significantly biased to CW or CCW,hUVEC cells; drug 30 nM,7
C[C@@H](N)[C@H]1CC[C@H](C(=O)Nc2ccncc2)CC1 [Y-27632],effect on left-right asymmetry,C2C12 cells,did not affect left-right asymmetry
